Reference: US20110200626A1, “IQGAP3 EPITOPE PEPTIDES AND VACCINES CONTAINING THE SAME” (Oncotherapy Science, Inc., priority 2008, published 2011)
“Also recorded” adds a separate entry of the source. Ends that are not written are not given here.

Columns and labels:
Type in all cases: cell-based, human
[1] = test system: peptide-pulsed A24LCL cells; experiment: IFN-gamma ELISPOT assay on CTLs induced with HLA-A*2402 restricted peptides; conditions: against peptide-pulsed target cells compared with control without peptide
[2] = test system: peptide-pulsed A24LCL cells; experiment: IFN-gamma ELISA assay on CTL lines (HLA-A*2402); conditions: target cells pulsed with corresponding peptide vs without peptide
peptide-pulsed T2 cells [3] = experiment: IFN-gamma ELISPOT assay on CTLs induced with HLA-A*0201 restricted peptides; conditions: against peptide-pulsed target cells compared with control without peptide
peptide-pulsed T2 cells [4] = experiment: IFN-gamma ELISA assay on CTL lines (HLA-A*0201); conditions: target cells pulsed with corresponding peptide vs without peptide
peptide-pulsed T2 cells [5] = experiment: IFN-gamma ELISA assay on CTL clones established by limiting dilution (HLA-A*0201); conditions: peptide-pulsed target cells
Method: The dilutions were made to have 0.3, 1, and 3 CTLs/well in 96 round-bottomed micro titer plate (Nalge Nunc International). CTLs were cultured with 1×10^4 cells/well of 2 kinds of human B-lymphoblastoid cell lines, 30 ng/ml of anti-CD3 antibody, and 125 U/ml of IL-2 in a total of 150 and/well of AIM-VMedium containing 5% AS. 50 mcl/well of IL-2 were added to the medium 10 days later so to reach a final concentration of 125 U/ml IL-2. CTL activity was tested on the 14th day, and CTL clones were expanded using the same method as described above (Uchida N et al., Clin Cancer Res 2004 Dec. 15, 10(24): 8577-86; Suda T et al., Cancer Sci 2006 May, 97(5): 411-9; Watanabe T et al., Cancer Sci 2005 August, 96(8): 498-506).
Specifically, peptide-pulsed A24 or T2 LCL (1×10^4/well) was prepared as stimulator cells. Cultured cells in 48 wells were used as responder cells. IFN-gamma ELISPOT assay and IFN-gamma ELISA assay were performed under manufacture procedure.

AYQHLFYLL [SEQ ID NO: 2]
IFN-gamma production of peptide-induced CTLs (ELISPOT) ([1]; listed as IQGAP3-A24-9-955): potent IFN-gamma production ability | IFN-gamma production of established CTL lines (ELISA) [2]: potent IFN-gamma production

CFAPSVVPL [SEQ ID NO: 21]
IFN-gamma production of peptide-induced CTLs (ELISPOT) ([1]; listed as IQGAP3-A24-9-74): potent IFN-gamma production ability | IFN-gamma production of established CTL lines (ELISA) [2]: potent IFN-gamma production

FLAEaELLKL (FLAEAELLKL; not fully specified (residue 5); printed as FLAEaELLKL) [SEQ ID NO: 113]
IFN-gamma production of peptide-induced CTLs (ELISPOT) (peptide-pulsed T2 cells [3]): no specific IFN-gamma production

FLRTWLPAV [SEQ ID NO: 101]
IFN-gamma production of peptide-induced CTLs (ELISPOT) (peptide-pulsed T2 cells [3]; listed as IQGAP3-A02-9-756): potent IFN-gamma production ability | IFN-gamma production of established CTL lines (ELISA) (peptide-pulsed T2 cells [4]): potent IFN-gamma production

GLLVkNRITL (GLLVKNRITL; not fully specified (residue 5); printed as GLLVkNRITL) [SEQ ID NO: 130]
IFN-gamma production of peptide-induced CTLs (ELISPOT) (peptide-pulsed T2 cells [3]; listed as IQGAP3-A02-10-903): potent IFN-gamma production ability | IFN-gamma production of CTL clones (ELISA) (peptide-pulsed T2 cells [5]; listed as IQGAP3-A02-10-903): potent IFN-gamma production | IFN-gamma production of established CTL lines (ELISA) (peptide-pulsed T2 cells [4]): potent IFN-gamma production

GLVDeLAKDI (GLVDELAKDI; not fully specified (residue 5); printed as GLVDeLAKDI) [SEQ ID NO: 145]
IFN-gamma production of peptide-induced CTLs (ELISPOT) (peptide-pulsed T2 cells [3]; listed as IQGAP3-A02-10-1461): potent IFN-gamma production ability | IFN-gamma production of CTL clones (ELISA) (peptide-pulsed T2 cells [5]; listed as IQGAP3-A02-10-1461): potent IFN-gamma production | IFN-gamma production of established CTL lines (ELISA) (peptide-pulsed T2 cells [4]): potent IFN-gamma production

HALGAVAQLL [SEQ ID NO: 67]
IFN-gamma production of peptide-induced CTLs (ELISPOT) ([1]; listed as IQGAP3-A24-10-1207): potent IFN-gamma production ability | IFN-gamma production of established CTL lines (ELISA) [2]: potent IFN-gamma production

ILVHaPHPPL (ILVHAPHPPL; not fully specified (residue 5); printed as ILVHaPHPPL) [SEQ ID NO: 148]
IFN-gamma production of peptide-induced CTLs (ELISPOT) (peptide-pulsed T2 cells [3]; listed as IQGAP3-A02-10-842): potent IFN-gamma production ability | IFN-gamma production of established CTL lines (ELISA) (peptide-pulsed T2 cells [4]): potent IFN-gamma production

IMDkIGLLV [SEQ ID NO: 150]
IFN-gamma production of peptide-induced CTLs (ELISPOT) (peptide-pulsed T2 cells [3]; listed as IQGAP3-A02-10-897): potent IFN-gamma production ability | IFN-gamma production of established CTL lines (ELISA) (peptide-pulsed T2 cells [4]): potent IFN-gamma production

KALQDPALAL [SEQ ID NO: 57]
IFN-gamma production of peptide-induced CTLs (ELISPOT) ([1]; listed as IQGAP3-A24-10-314): potent IFN-gamma production ability | IFN-gamma production of established CTL lines (ELISA) [2]: potent IFN-gamma production

KAQELGLVEL [SEQ ID NO: 53]
IFN-gamma production of peptide-induced CTLs (ELISPOT) ([1]; listed as IQGAP3-A24-10-345): potent IFN-gamma production ability | IFN-gamma production of established CTL lines (ELISA) [2]: potent IFN-gamma production

KIGGILANEL [SEQ ID NO: 56]
IFN-gamma production of peptide-induced CTLs (ELISPOT) ([1]; listed as IQGAP3-A24-10-191): potent IFN-gamma production ability | IFN-gamma production of established CTL lines (ELISA) [2]: potent IFN-gamma production

KLGHcFAPSV (KLGHCFAPSV; not fully specified (residue 5); printed as KLGHcFAPSV) [SEQ ID NO: 114]
IFN-gamma production of peptide-induced CTLs (ELISPOT) (peptide-pulsed T2 cells [3]; listed as IQGAP3-A02-10-70): potent IFN-gamma production ability | IFN-gamma production of established CTL lines (ELISA) (peptide-pulsed T2 cells [4]): potent IFN-gamma production

KVNVNLLIFL [SEQ ID NO: 55]
IFN-gamma production of peptide-induced CTLs (ELISPOT) ([1]; listed as IQGAP3-A24-10-1614): potent IFN-gamma production ability | IFN-gamma production of established CTL lines (ELISA) [2]: potent IFN-gamma production

LEAYqHLFYL (LEAYQHLFYL; not fully specified (residue 5); printed as LEAYqHLFYL) [SEQ ID NO: 139]
IFN-gamma production of peptide-induced CTLs (ELISPOT) (peptide-pulsed T2 cells [3]; listed as IQGAP3-A02-10-953): potent IFN-gamma production ability | IFN-gamma production of established CTL lines (ELISA) (peptide-pulsed T2 cells [4]): potent IFN-gamma production

LLAKlGHCFA (LLAKLGHCFA; not fully specified (residue 5); printed as LLAKlGHCFA) [SEQ ID NO: 143]
IFN-gamma production of peptide-induced CTLs (ELISPOT) (peptide-pulsed T2 cells [3]; listed as IQGAP3-A02-10-67): potent IFN-gamma production ability | IFN-gamma production of CTL clones (ELISA) (peptide-pulsed T2 cells [5]; listed as IQGAP3-A02-10-67): potent IFN-gamma production | IFN-gamma production of established CTL lines (ELISA) (peptide-pulsed T2 cells [4]): potent IFN-gamma production

LLPAaGLDDV (LLPAAGLDDV; not fully specified (residue 5); printed as LLPAaGLDDV) [SEQ ID NO: 125]
IFN-gamma production of peptide-induced CTLs (ELISPOT) (peptide-pulsed T2 cells [3]; listed as IQGAP3-A02-10-548): potent IFN-gamma production ability | IFN-gamma production of established CTL lines (ELISA) (peptide-pulsed T2 cells [4]): potent IFN-gamma production

MYQLELAVL [SEQ ID NO: 6]
IFN-gamma production of peptide-induced CTLs (ELISPOT) ([1]; listed as IQGAP3-A24-9-417): typical negative data of CTL response; also recorded: no specific IFN-gamma production | IFN-gamma production of established CTL lines (ELISA) [2]: no specific IFN-gamma production | IFN-gamma production of established CTL lines (ELISA) ([2]; listed as IQGAP3-A24-9-417): typical negative data of CTL response

PYDVTPEQAL [SEQ ID NO: 49]
IFN-gamma production of peptide-induced CTLs (ELISPOT) ([1]; listed as IQGAP3-A24-10-1097): potent IFN-gamma production ability | IFN-gamma production of established CTL lines (ELISA) [2]: potent IFN-gamma production

QLHYqDLLQL (QLHYQDLLQL; not fully specified (residue 5); printed as QLHYqDLLQL) [SEQ ID NO: 140]
IFN-gamma production of peptide-induced CTLs (ELISPOT) (peptide-pulsed T2 cells [3]; listed as IQGAP3-A02-10-1590): potent IFN-gamma production ability | IFN-gamma production of established CTL lines (ELISA) (peptide-pulsed T2 cells [4]): potent IFN-gamma production

QYEGVAVMKL [SEQ ID NO: 35]
IFN-gamma production of peptide-induced CTLs (ELISPOT) ([1]; listed as IQGAP3-A24-10-1600): potent IFN-gamma production ability | IFN-gamma production of established CTL lines (ELISA) [2]: potent IFN-gamma production

RLDIALRNLL [SEQ ID NO: 63]
IFN-gamma production of peptide-induced CTLs (ELISPOT) ([1]; listed as IQGAP3-A24-10-1114): potent IFN-gamma production ability | IFN-gamma production of established CTL lines (ELISA) [2]: potent IFN-gamma production

RNGVLLAKL [SEQ ID NO: 32]
IFN-gamma production of peptide-induced CTLs (ELISPOT) ([1]; listed as IQGAP3-A24-9-63): potent IFN-gamma production ability | IFN-gamma production of established CTL lines (ELISA) [2]: potent IFN-gamma production

RQNVAYQYL [SEQ ID NO: 25]
IFN-gamma production of peptide-induced CTLs (ELISPOT) ([1]; listed as IQGAP3-A24-9-26): potent IFN-gamma production ability | IFN-gamma production of established CTL lines (ELISA) [2]: potent IFN-gamma production

RSLLLSTKQL [SEQ ID NO: 62]
IFN-gamma production of peptide-induced CTLs (ELISPOT) ([1]; listed as IQGAP3-A24-10-1363): potent IFN-gamma production ability | IFN-gamma production of established CTL lines (ELISA) [2]: potent IFN-gamma production

RVVYCIHAL [SEQ ID NO: 29]
IFN-gamma production of peptide-induced CTLs (ELISPOT) ([1]; listed as IQGAP3-A24-9-137): potent IFN-gamma production ability | IFN-gamma production of established CTL lines (ELISA) [2]: potent IFN-gamma production

SMYQlELAVL (SMYQLELAVL; not fully specified (residue 5); printed as SMYQlELAVL) [SEQ ID NO: 142]
IFN-gamma production of peptide-induced CTLs (ELISPOT) (peptide-pulsed T2 cells [3]; listed as IQGAP3-A02-10-416): potent IFN-gamma production ability | IFN-gamma production of established CTL lines (ELISA) (peptide-pulsed T2 cells [4]): potent IFN-gamma production

VYCIHALSLF [SEQ ID NO: 40]
IFN-gamma production of peptide-induced CTLs (ELISPOT) ([1]; listed as IQGAP3-A24-10-139): potent IFN-gamma production ability | IFN-gamma production of established CTL lines (ELISA) [2]: potent IFN-gamma production

VYKVVGNLL [SEQ ID NO: 4]
IFN-gamma production of peptide-induced CTLs (ELISPOT) ([1]; listed as IQGAP3-A24-9-1167): potent IFN-gamma production ability | IFN-gamma production of established CTL lines (ELISA) [2]: potent IFN-gamma production

YLLQtQPIYL (YLLQTQPIYL; not fully specified (residue 5); printed as YLLQtQPIYL) [SEQ ID NO: 111]
IFN-gamma production of peptide-induced CTLs (ELISPOT) (peptide-pulsed T2 cells [3]; listed as IQGAP3-A02-10-961): potent IFN-gamma production ability | IFN-gamma production of established CTL lines (ELISA) (peptide-pulsed T2 cells [4]): potent IFN-gamma production

YYSQYIRACL [SEQ ID NO: 37]
IFN-gamma production of peptide-induced CTLs (ELISPOT) ([1]; listed as IQGAP3-A24-10-1507): potent IFN-gamma production ability | IFN-gamma production of established CTL lines (ELISA) [2]: potent IFN-gamma production
